Experimental data reported in patent publication US20160256371A1, “PHOTOSTABLE COMPOSITIONS COMPRISING PARA-ALKOXYL PHENYL SUBSTITUTED PROPENOIC ACID (APP) DERIVATIVES” (HALLSTAR INNOVATIONS CORP., priority 2015, published 2016).

Assay: Photostability of BMDBM/OMC compositions in acetonitrile under UV irradiation, with and without APP analogue
Type: physicochemical
Conditions: no APP
Description: Comparisons were performed to evaluate the abilities of APP derivatives of Formula I, Ia, Ib, Ic, Id, Ie, If, or combination thereof to photostabilize photoactive compounds. UV light exposure is often measured in MED rather than a measurement of time. MED relates to the minimal dosage of UV exposure required to result in redness 24 hours after exposure. Although technically an individualized measurement that would vary depending on the sensitivity of an individual's skin, MED measurements have been standardized with the advent of UV bulbs and lamps. FIG. 1 illustrates the photoinstability of a composition containing BMDBM and OMC. […] Absorption was measured for wavelengths 250 nm to 500 nm in length. BMDBM absorbs wavelengths around 375 nm in length, which can be seen as a distinct peak on the line illustrating the composition which was not irradiated with UV light. […] FIG. 2 illustrates the photostabilization of a photoactive composition by the addition of an APP analogue of Formula I. […] The APP analogue was a 1:1 blend of Formula Ia and Formula Ib. […] FIG. 3 illustrates the percentage of BMDBM remaining in compositions after irradiation with 15 MED of UV light. […] The APP analogue was a 1:1 blend of Formula Ia and Formula Ib.

Compound: COc1ccc(C(=O)CC(=O)c2ccc(C(C)(C)C)cc2)cc1 [BMDBM, 4-tert-butyl-4-methoxy-dibenzoylmethane]
- BMDBM absorption peak at 375 nm after UV irradiation (acetonitrile solution, 10 ppm BMDBM and 10 ppm OMC, 15 MED versus 0 MED, FIG. 1): substantially diminished
- percentage of BMDBM remaining capable of absorbing light at 375 nm after irradiation (composition of 10 ppm BMDBM and 10 ppm OMC, 15 MED of UV light, FIG. 3): 2.9%
